From US11879132B2, “Plants having increased tolerance to herbicides” (BASF AGRO B.V., priority 2016, dated 2024)
Like-named read-outs stand apart in the source and are kept apart here.

Assays:
[1] = system: non-transgenic (MC-24) Arabidopsis; experiment: Germination assay, ARBTH germinating in medium containing selection agent (48-well plates); format: in vivo, Arabidopsis thaliana
Procedure: Transgenic Arabidopsis thaliana plants are assayed for improved tolerance to saflufenacil, 1,5-dimethyl-6-thioxo-3-(2,2,7-trifluoro-3-oxo-4-(prop-2-ynyl)-3,4-dihydro-2H-benzo[b][1,4]oxazin-6-yl)-1,3,5-triazinane-2,4-dione (CAS 1258836-72-4/trifludimoxazin), flumioxazin, butafenacil, acifluorfen, lactofen, bifenox, sulfentrazone, and photosynthesis inhibitor diuron as negative control in 48-well plates. Therefore, T2 seeds are surface sterilized by stirring for 5 min in ethanol+water (70+30 by volume), rinsing one time with ethanol+water (70+30 by volume) and two times with sterile, deionized water. […] Growth inhibition is evaluated seven to ten days after seeding in comparison to wild type plants.
Transgenic Arabidopsis thaliana plants are assayed for improved tolerance to saflufenacil, 1,5-dimethyl-6-thioxo-3-(2,2,7-trifluoro-3-oxo-4-(prop-2-ynyl)-3,4-dihydro-2H-benzo[b][1,4]oxazin-6-yl)-1,3,5-triazinane-2,4-dione (CAS 1258836-72-4/trifludimoxazin), flumioxazin, butafenacil, acifluorfen, lactofen, bifenox, sulfentrazone, and photosynthesis inhibitor diuron as negative control, in 48-well plates. […] Growth inhibition was evaluated seven to ten days after seeding in comparison to wild type plants. […]

[2] = system: empty vector-transformed leaf discs; experiment: PSII yield inhibition in tobacco leaf discs (imaging PAM chlorophyll fluorescence); format: cell-based; conditions: Nicotiana benthamiana, read-out: IC50 of PSII yield inhibition
From the text: Transient expression of mutated PPO sequences as wildtype or with respective mutations were done as described previously (Voinnet O., et al., 2003, The Plant Journal 33, 949-956). In brief, cloning of GOI and Agrobacterium transformation (strain: GV2260) were done as described in EXAMPLE 5. Young leaves of Nicotiana benthamiana were infiltrated with transgenic Agrobacterium suspension (OD^600 of 1.0) harboring binary vector constructs containing a GO/gene controlled by a promoter and terminator sequence. 48 h to 72 h after infiltration punches of leave discs (0.75 cm in diameter) were transferred to 6-well plates with medium (half strength Linsmaier-Skoog (Linsmaier and Skoog (1965) Physiol. Plant. 18: 100-127) nutrient solution or water) containing herbicide of interest in different concentrations. […]
Leaf discs, generated as described in EXAMPLE 14, expressing a protein encoded by GOI, were subjected to analysis on improved tolerance to herbicide treatment. For analysis of herbicide damage, chlorophyll fluorescence were identified as indicative marker (Dayan and Zaccaro (2012) Pest. Biochem. Physiol. 102: 189-197). […] PSII yield were measured as per manufacturer instructions.
Tolerance factors were calculated based on IC50 values of PSII yield inhibition of transformed versus empty vector-transformed leaf discs.

[3] = system: transgenic Arabidopsis AMATU_PPO2_G211A_F420M; experiment: Germination assay, transgenic ARBTH germinating in medium containing selection agent (48-well plates); format: in vivo, Arabidopsis thaliana; conditions: for IC50: Arabidopsis thaliana
Procedure: (§1) Transgenic Arabidopsis thaliana plants are assayed for improved tolerance to saflufenacil, 1,5-dimethyl-6-thioxo-3-(2,2,7-trifluoro-3-oxo-4-(prop-2-ynyl)-3,4-dihydro-2H-benzo[b][1,4]oxazin-6-yl)-1,3,5-triazinane-2,4-dione (CAS 1258836-72-4/trifludimoxazin), flumioxazin, butafenacil, acifluorfen, lactofen, bifenox, sulfentrazone, and photosynthesis inhibitor diuron as negative control in 48-well plates. Therefore, T2 seeds are surface sterilized by stirring for 5 min in ethanol+water (70+30 by volume), rinsing one time with ethanol+water (70+30 by volume) and two times with sterile, deionized water. The seeds are resuspended in 0.1% agar dissolved in water (w/v) Four to five seeds per well are plated on solid nutrient medium consisting of half-strength murashige skoog nutrient solution, pH 5.8 (Murashige and Skoog (1962) Physiologia Plantarum 15: 473-497). Compounds are dissolved in dimethylsulfoxid (DMSO) and added to the medium prior solidification (final DMSO concentration 0.1%). Multi well plates are incubated in a growth chamber at 22° C., 75% relative humidity and 110 μmol Phot*m^−2*s^−1 with 14: 10 h light: dark photoperiod. Growth inhibition is evaluated seven to ten days after seeding in comparison to wild type plants.
as §1, with “negative control,” for “negative control”, “inhibition was” for “inhibition is”, “plants. Additionally, transgenic T1 Arabidopsis plants were tested for improved tolerance to herbicides in greenhouse studies with the following herbicides: saflufenacil, 1,5-dimethyl-6-thioxo-3-(2,2,7-trifluoro-3-oxo-4-(prop-2-ynyl)-3,4-dihydro-2H-benzo[b][1,4]oxazin-6-yl)-1,3,5-triazinane-2,4-dione (CAS 1258836-72-4/trifludimoxazin), flumioxazin, butafenacil, acifluorfen, lactofen, bifenox, sulfentrazone, and photosynthesis inhibitor diuron as negative control.” for “plants.”

[4] = system: transgenic Arabidopsis AMATU_PPO2_wild_type; experiment: as above; format: in vivo, Arabidopsis thaliana
Procedure: as §1
as §1, with “negative control,” for “negative control”, “inhibition was” for “inhibition is”, “plants. Additionally, transgenic T1 Arabidopsis plants were tested for improved tolerance to herbicides in greenhouse studies with the following herbicides: saflufenacil, 1,5-dimethyl-6-thioxo-3-(2,2,7-trifluoro-3-oxo-4-(prop-2-ynyl)-3,4-dihydro-2H-benzo[b][1,4]oxazin-6-yl)-1,3,5-triazinane-2,4-dione (CAS 1258836-72-4/trifludimoxazin), flumioxazin, butafenacil, acifluorfen, lactofen, bifenox, sulfentrazone, and photosynthesis inhibitor diuron as negative control.” for “plants.”

With CC(C)N(C)S(=O)(=O)NC(=O)c1cc(-n2c(=O)cc(C(F)(F)F)n(C)c2=O)c(F)cc1Cl [Saflufenacil] the “Tolerance Factor (non transgeneic = 1.0)” value [1] was 1, the IC50 ([1]; Arabidopsis thaliana) was 25 nM and the IC50 ([2]; 48 h) was 110 nM. For the same compound, the IC50 ([3]; Event D) was 25 µM, the IC50 ([3]; Event M) was 25 µM and the IC50 ([3]; Event P) was 7.5 µM. For the same compound, the IC50 ([3]; Event Q) was 7.5 µM, the IC50 ([3]; Event R) was 7.5 µM and the “Tolerance Factor (non transgeneic = 1.0)” value ([3]; Event D) was 1000. For the same compound, the “Tolerance Factor (non transgeneic = 1.0)” value ([3]; Event M) was 1000, the “Tolerance Factor (non transgeneic = 1.0)” value ([3]; Event P) was 300 and the “Tolerance Factor (non transgeneic = 1.0)” value ([3]; Event Q) was 300. The “Tolerance Factor (non transgeneic = 1.0)” value ([3]; Event R) was 300, the “Tolerance Factor (non transgeneic = 1.0)” value [4] was 10 and the IC50 ([4]; Arabidopsis thaliana) was 106 nM.

C#CCN1C(=O)C(F)(F)Oc2cc(F)c(-n3c(=O)n(C)c(=S)n(C)c3=O)cc21 [1,5-dimethyl-6-thioxo-3-(2,2,7-trifluoro-3-oxo-4-(prop-2-ynyl)-3,4-dihydro-2H-benzo[b][1,4]oxazin-6-yl)-1,3,5-triazinane-2,4-dione] showed an IC50 ([2]; empty vector-transformed leaf discs, treated for 48 h) of 11 nM.
